The subject of experiment [1] is mushroom tyrosinase. Kind of experiment: Tyrosinase activity inhibition test using L-dopa as substrate (Test Examples 1 and 2, absorbance at 475 nm). In kind it is biochemical. How it is done: Using the compound 7 obtained in Example 2, the compound 13 obtained in Example 5, a mixture of the compound 18 and the compound 19 (existing molar ratio 45:55) obtained in Example 7, and arbutin (manufactured by Tokyo Kasei Kogyo Co., Ltd.) as a comparative control, a tyrosinase activity inhibition test was carried out using L-dopa as a substrate.
The specific test procedures are as follows. • (1) 1.80 ml of a phosphate buffer prepared by dissolving 1.000 g of sodium dihydrogen phosphate and 1.186 g of disodium hydrogen phosphate in 500 ml of distilled water, 1.00 ml of a substrate solution prepared by dissolving 32.7 mg of L-DOPA in 200 ml of distilled water, and 0.10 ml of a test solution prepared by dissolving the test compound in dimethyl sulfoxide were mixed together. • (2) 0.10 ml of an enzyme solution prepared by dissolving 3.0 mg (2400 units; manufactured by Sigma Corporation) of mushroom tyrosinase in 7.0 ml of distilled water was added to the solution prepared in (1), and the whole was stirred for 15 seconds. The resulting solution was maintained at 25° C., and the absorbance at 475 nm was measured one minute and 45 seconds later and 2 minutes and 45 seconds later. • (3) The test operations in the above (1) and (2) were conducted three times for the individual test compounds and blank test (only dimethyl sulfoxide), and the resulting numeric value was inserted in the following calculation formula and a mean value thereof was regarded as a tyrosinase activity inhibition ratio (%). Tyrosinase activity inhibition ratio (%)=[(T^1−T^2)/T^1]×100 • T^1=difference in absorbance of solution with addition of no test compound between 2 minutes and 45 seconds later and one minute and 45 seconds later • T^2=difference in absorbance of solution with addition of test compound was added between 2 minutes and 45 seconds later and one minute and 45 seconds later
Using the compound 40 obtained in Example 24 and arbutin (manufactured by Tokyo Kasei Kogyo Co., Ltd.) as a comparative control, a tyrosinase activity inhibition test was carried out using L-dopa as a substrate. The test procedure was in accordance with Test Example 1.

For experiment [2], the system named is mushroom tyrosinase. Kind of experiment: Tyrosinase activity inhibition test using L-dopa as substrate (Test Examples 3 to 6, microplate reader, 490 nm). It counts as biochemical. The protocol: Using the compound 37 obtained in Example 21, the compound 38 obtained in Example 22, the compound 39 obtained in Example 23, and arbutin (manufactured by Tokyo Kasei Kogyo Co., Ltd.) as a comparative control, a tyrosinase activity inhibition test was carried out using L-dopa as a substrate.
The specific test procedures are as follows. • (1) 72 μl of a phosphate buffer prepared by dissolving 1.000 g of sodium dihydrogen phosphate and 1.186 g of disodium hydrogen phosphate in 500 ml of distilled water, 80 μl of a substrate solution prepared by dissolving 32.7 mg of L-DOPA in 200 ml of distilled water, and 8 μl of a test solution prepared by dissolving the test compound in dimethyl sulfoxide were mixed together. • (2) 80 μl of an enzyme solution prepared by dissolving 3.0 mg (2400 units; manufactured by Sigma Corporation) of mushroom tyrosinase in 7.0 ml of distilled water and diluting the solution with the above phosphate buffer so as to make it five times in amount was added to the solution prepared in (1), and the whole was stirred for 15 seconds. The resulting solution was maintained at 25° C., and the absorbance at 490 nm was measured by a microplate reader one minute and 45 seconds later and 2 minutes and 45 seconds later. • (3) The test operations in the above (1) and (2) were conducted four times for the individual test compounds and blank test (only dimethyl sulfoxide), and the resulting numeric value was inserted in the following calculation formula and a mean value thereof was regarded as a tyrosinase activity inhibition ratio (%). Tyrosinase activity inhibition ratio (%)=[(T^1−T^2)/T^1]×100 • T^1=difference in absorbance of solution with addition of no test compound between 2 minutes and 45 seconds later and one minute and 45 seconds later • T^2=difference in absorbance of solution with addition of test compound was added between 2 minutes and 45 seconds later and one minute and 45 seconds later
Using the compound 42 obtained in Example 26, the compound 45 obtained in Example 29, the compound 46 obtained in Example 30, and arbutin (manufactured by Tokyo Kasei Kogyo Co., Ltd.) as a comparative control, a tyrosinase activity inhibition test was carried out using L-dopa as a substrate. The test procedure was in accordance with Test Example 3.
Using the compound 34 obtained in Example 18, the compound 47 obtained in Example 31, and arbutin (manufactured by Tokyo Kasei Kogyo Co., Ltd.) as a comparative control, a tyrosinase activity inhibition test was carried out using L-dopa as a substrate. The test procedure was in accordance with Test Example 3.
Using the compound 48 obtained in Example 32 and arbutin (manufactured by Tokyo Kasei Kogyo Co., Ltd.) as a comparative control, a tyrosinase activity inhibition test was carried out using L-dopa as a substrate. The test procedure was in accordance with Test Example 3.

Experiment [3] addresses T1, hyaluronic acid-degrading enzyme (derived from bovine testicles, Type IV-S) (Bos taurus, UniProt Q2YDK3).
T1 construct: derived from bovine testicles manufactured by Sigma Corporation, Type IV-S; purchased Sigma Corporation Type IV-S; host or cells: bovine testicles
T1 sequence (Q2YDK3 36-553): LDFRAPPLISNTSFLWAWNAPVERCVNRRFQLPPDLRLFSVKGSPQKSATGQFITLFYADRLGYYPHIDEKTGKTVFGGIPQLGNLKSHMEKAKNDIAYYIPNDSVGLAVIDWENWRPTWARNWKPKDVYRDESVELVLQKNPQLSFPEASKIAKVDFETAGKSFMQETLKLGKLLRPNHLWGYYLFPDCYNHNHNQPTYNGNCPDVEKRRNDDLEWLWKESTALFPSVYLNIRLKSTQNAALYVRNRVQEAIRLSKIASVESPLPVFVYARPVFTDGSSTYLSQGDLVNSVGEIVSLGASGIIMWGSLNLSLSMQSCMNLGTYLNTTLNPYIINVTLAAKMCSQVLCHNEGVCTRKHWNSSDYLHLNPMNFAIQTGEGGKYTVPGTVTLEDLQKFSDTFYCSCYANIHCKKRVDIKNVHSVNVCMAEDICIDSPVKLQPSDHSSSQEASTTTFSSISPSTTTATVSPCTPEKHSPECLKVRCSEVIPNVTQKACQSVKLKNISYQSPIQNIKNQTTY
As to the kind of experiment: Hyaluronic acid-degrading enzyme activity inhibition test. It counts as biochemical. The protocol:
Using the compound 7 obtained in Example 2, the compound 34, and magnesium ascorbate phosphate as a comparative control, a hyaluronic acid-degrading enzyme activity inhibition test was carried out.
First, the following solutions shown in A to H were each prepared. • A: 0.1M acetate buffer solution was prepared by dissolving 0.60 g of acetic acid in 100 ml of distilled water. • B: A hyaluronidase solution was prepared by dissolving 7.2 mg of a hyaluronic acid-degrading enzyme (derived from bovine testicles manufactured by Sigma Corporation, Type IV-S) into 3.0 ml of the acetate buffer (prepared in the above A). • C: An activator solution was prepared by dissolving 1.0 mg of compound 48/80 (a hyaluronidase activator manufactured by Sigma Corporation) into 10.0 ml of the acetate buffer (prepared in the above A). • D: A hyaluronic acid solution was prepared by dissolving 12.0 mg of potassium hyaluronate (manufactured by Wako Pure Chemical Industries, Ltd.) into 15.0 ml of the acetate buffer (prepared in the above A). • E: A 0.4N sodium hydroxide aqueous solution was prepared by dissolving 1.60 g of sodium hydroxide into 100 ml of distilled water. • F: After 4.95 g of boric acid was dissolved into 50 ml of distilled water, a 1N sodium hydroxide aqueous solution was added until pH reached 9.1. Subsequently, the whole amount was made 100 ml by adding distilled water. • G: 1.0 g of p-dimethylaminobenzaldehyde, 1.25 ml of 10N hydrochloric acid, and 8.75 ml of acetic acid were mixed. The solution was used after the whole amount was made 100 ml by adding acetic acid immediately before use. • H: Each test compound was dissolved in the acetate buffer (prepared in the above A) so the final test concentration became 0.5 mg/ml and 1.0 mg/ml.
Next, the experimental operation was carried out with the procedures shown in the following (1) to (8).
(1) 0.2 ml of the test compound solution (prepared in the above H) and 0.1 ml of the hyaluronic acid-degrading enzyme solution (prepared in the B) were mixed and the whole was incubated at 37° C. for 20 minutes.
(2) To the above reaction solution was added 0.2 ml of the activator solution (prepared in the above C) and the whole was incubated at 37° C. for 20 minutes.
(3) To the above reaction solution was added 0.5 ml of the hyaluronic acid solution (prepared in the above D), and the whole was incubated at 37° C. for 40 minutes.
(4) To the above reaction solution was added 0.2 ml of the 0.4N sodium hydroxide aqueous solution (prepared in the above E), and the whole was cooled in an ice bath.
(5) To the above reaction solution was added 0.2 ml of the boric acid solution (prepared in the above F), and the whole was heated at 100° C. for 3 minutes.
(6) The above reaction solution was cooled in an ice bath.
(7) To the above reaction solution was added 3.0 ml of the p-dimethylaminobenzaldehyde solution (prepared in the above G), and the whole was incubated at 37° C. for 20 minutes.
(8) Absorbance of the reaction solution at 585 nm was measured using a spectrophotometer.
The above experimental operations were repeated three times, and the resulting numeric value was inserted in the following calculation formula and a mean value thereof was regarded as a hyaluronic acid-degrading enzyme activity inhibition ratio (%). Hyaluronic acid-degrading enzyme activity inhibition ratio (%)=(A−B)/A×100
A=absorbance obtained at the time when operation was carried out with addition of no test compound
B=absorbance obtained at the time when operation was carried out with addition of test compound
The compounds of the invention and magnesium ascorbate phosphate were each used in an enzymatic reaction solution in amounts of 0.1 mg/ml, 0.2 mg/ml, and 0.4 mg/ml, and the results were shown in Table 7 (since the compound 7 was not dissolved in a concentration of 0.4 mg/ml, the test was not carried out).

The nature of experiment [4]: Test of scavenging DPPH radical (Test Example 9, microplate reader, 540 nm). Conditions: final concentration of 25 μg/mL; 20 minutes, room temperature. The source says:
Using the compound 36 obtained in Example 20, the compound 37 obtained in Example 21, the compound 38 obtained in Example 22, the compound 39 obtained in Example 23, the compound 40 obtained in Example 24, the compound 42 obtained in Example 26, the compound 45 obtained in Example 29, the compound 46 obtained in Example 30, the compound 48 obtained in Example 32 and, as a comparative control, dl-α-tocopherol (manufactured by Tokyo Kasei Kogyo Co., Ltd.), a test of scavenging DDPH (1,1-diphenyl-2-picrylhydrazyl) radical, a stable radical, was carried out.
100 μl of 800 μM DPPH ethanol solution was added to 80 μl of 100 mM Tris-HCl buffer (pH 7.4) and 20 μl of an ethanol solution of the compound 36 (final concentration of 25 μg/mL), followed by sufficient stirring. After the resulting mixture was allowed to stand in a dark place at room temperature for 20 minutes, the absorbance at 540 nm was measured on a microplate reader (absorbance of the test solution).
The compounds 37, 38, 39, 40, 42, 45, 46, and 48 of the invention as well as dl-α-tocopherol as a known radical scavenger were similarly tested.
As a control, using 80 μl of 100 mM Tris-HCl buffer (pH 7.4), 20 μl of ethanol, and 100 μl of 800 μM DPPH ethanol solution, the same operation was carried out as described above and the absorbance was measured (absorbance of the control solution).
With the individual compounds, the same measurement was repeated four times, and the mean value was inserted in the following formula to calculate a DPPH radical-scavenging ratio. DPPH radical-scavenging ratio (%)=[1−(absorbance of sample solution/absorbance of control solution)]×100

Consider `OC[C@H]1O[C@@H](Oc2ccc(O)cc2)[C@H](O)[C@@H](O)[C@@H]1O` [Arbutin, arbutin, reference compound], for which the “Tyrosinase activity inhibition ratio (%)” value stood at 23.1% in experiment [1] (0.125 mg/mL, Table 2); 28.5% in experiment [1] (0.25 mg/mL, Table 2); 36.2% in experiment [1] (0.5 mg/mL in enzymatic reaction solution, Table 1); 34.6% in experiment [1] (0.5 mg/mL, Table 2); 42.2% in experiment [1] (1 mg/mL in enzymatic reaction solution, Table 1); 10.7% in experiment [2] (0.031 mg/mL, Table 4). For the same compound, the “Tyrosinase activity inhibition ratio (%)” value amounted to 17.7% in experiment [2] (0.063 mg/mL, Table 4); 24.7% in experiment [2] (0.125 mg/mL, Table 4); 35.8% in experiment [2] (0.25 mg/mL, Table 6, 0.50 mg/mL); 35.0% in experiment [2] (0.5 mg/mL, Table 3); 42.6% in experiment [2] (0.5 mg/mL, Table 6, 0.50 mg/mL); 41.6% in experiment [2] (1 mg/mL, Table 3). Also, in experiment [2] (1.00 mg/ml, Table 5), the “Tyrosinase activity inhibition ratio (%)” value came out at 45.6%.

On to `COc1cc(CCC(=O)CC(O)CCCCCCC(=O)O)ccc1O` (stereo not drawn) [Compound 34], for which, in experiment [2] (1.00 mg/ml, Table 5), the “Tyrosinase activity inhibition ratio (%)” value is listed as 60.1%. For the same compound, the “Hyaluronic acid-degrading enzyme activity inhibition ratio (%)” value in experiment [3] (0.1 mg/mL) was found to be 12.1%; in experiment [3] (0.2 mg/mL) it was 31.6%; in experiment [3] (0.4 mg/mL), 81.3%.

`COC(=O)CCCCCCC(CC(=O)CCc1ccc(O)c(OC)c1)OC` (stereo not drawn) [Compound 36]: in experiment [4], the “DPPH radical-scavenging ratio (%)” value stood at 31.7%.

Regarding `COc1cc(CCC(O)/C=C/CCCCCCC(=O)O)ccc1O` (stereo not drawn) [Compound 37], the “Tyrosinase activity inhibition ratio (%)” value in experiment [2] (0.5 mg/mL, Table 3) is recorded as 48.6%; in experiment [2] (1 mg/mL, Table 3) it was 67.7%. For the same compound, in experiment [4], the “DPPH radical-scavenging ratio (%)” value was found to be 37.6%.

Turning to `COc1cc(CCC(O)CCCCCCCCC(=O)O)ccc1O` (stereo not drawn) [Compound 39], the “Tyrosinase activity inhibition ratio (%)” value in experiment [2] (0.5 mg/mL, Table 3) is 51.3%; in experiment [2] (1 mg/mL, Table 3), 75.2%. For the same compound, the “DPPH radical-scavenging ratio (%)” value in experiment [4] worked out at 33.8%.

For the compound “magnesium ascorbate phosphate [reference compound]”, the entries for the “Hyaluronic acid-degrading enzyme activity inhibition ratio (%)” value in experiment [3] (0.1 mg/mL), in experiment [3] (0.2 mg/mL) and in experiment [3] (0.4 mg/mL) were 3.3%, 4.2% and 7.6%, respectively.
